# In patent publication US8309319B2, “Fluorescent probe for measurement of UDP-glucuronosyltransferase” (The University of Tokyo, priority 2007, dated 2012):
# Assays:
# [1] = target: T1, UGT1A1 (Homo sapiens, UniProt P22309); test: Reactivity with UGT1A1, absorbance method (decrease of absorbance); format: biochemical; design: host or cells: microsomes expressing UGT1A1; conditions: probe 10 μM, absorbance at 480 to 510 nm; compared with 2-Me-4-OMe-TG
# T1 sequence (P22309 26-533): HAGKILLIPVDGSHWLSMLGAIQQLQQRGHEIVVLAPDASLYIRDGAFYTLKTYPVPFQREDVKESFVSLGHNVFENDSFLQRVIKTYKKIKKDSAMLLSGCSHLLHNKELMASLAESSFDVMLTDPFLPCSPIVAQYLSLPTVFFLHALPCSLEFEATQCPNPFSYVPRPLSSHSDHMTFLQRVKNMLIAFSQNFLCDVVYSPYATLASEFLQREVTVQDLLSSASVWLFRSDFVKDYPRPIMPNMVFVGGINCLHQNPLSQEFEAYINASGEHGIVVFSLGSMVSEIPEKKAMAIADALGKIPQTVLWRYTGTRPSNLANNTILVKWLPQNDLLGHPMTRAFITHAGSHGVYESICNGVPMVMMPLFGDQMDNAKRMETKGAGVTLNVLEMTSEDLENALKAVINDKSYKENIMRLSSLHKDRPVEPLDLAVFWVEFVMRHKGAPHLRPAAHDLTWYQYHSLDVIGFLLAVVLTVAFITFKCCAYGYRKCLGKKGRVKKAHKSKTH
# [2] = target: T1, UGT1A1; test: Reactivity of fluorescence increasing (d-PeT) type probes with UGT1A1; format: biochemical; design: host or cells: microsomes expressing UGT1A1; conditions: FIG. 4
# Description: The fluorescein derivatives of fluorescence decreasing type, of which fluorescence is decreased by a reaction with UGT, were obtained in Examples 1 and 2. Further researches were conducted in order to provide fluorescein derivatives of fluorescence increasing type of which fluorescence is increased by a reaction with UGT. Functionally, the structure of fluorescein can be recognized as two parts having different functions, i.e. the benzene ring moiety and the xanthene ring moiety. By appropriately choosing substituents on the benzene ring moiety among them, fluorescence thereof can be controlled by using PeT (J. Am. Chem. Soc., 123, pp. 2530-2536, 2001). […] Therefore, it is considered that there can be developed a fluorescence increasing type fluorescein derivative of which fluorescence is quenched by PeT before the reaction with UGT when the fluorescein derivative is a phenolate type, and fluorescence is emitted after the reaction with UGT when the fluorescein derivative is an O-glycoside type, by appropriately choosing the substituents on the benzene ring moiety (J. Am. Chem. Soc., 126, pp. 14079-14085, 2004). From such a point of view, 6-carboxyfluorescein dimethyl ester and 5,6-dicarboxyfluorescein trimethyl ester were designed as fluorescence increasing (d-PeT) type fluorescein derivatives, and reactivity thereof with UGT1A1 was confirmed.
# [3] = target: T1, UGT1A1; test: Reactivity with UGT1A1, fluorescence method (decrease in fluorescence intensity); conditions: 37° C.
# [4] = probe 1 μM, excitation 480 to 510 nm
compound,measurement,setting,value
Cc1ccc(-c2c3ccc(=O)cc-3oc3cc(O)ccc23)c([N+](=O)[O-])c1 [Derivative 15],decrease rate of absorbance,[1],higher decrease rate of absorbance
COC(=O)c1ccc(C(=O)OC)c(-c2c3ccc(=O)cc-3oc3cc(O)ccc23)c1 [6-carboxyfluorescein dimethyl ester],change of fluorescence intensity with passage of the reaction time,[2],increase of fluorescence intensity was observed
"COC(=O)c1cc(C(=O)OC)c(-c2c3ccc(=O)cc-3oc3cc(O)ccc23)cc1C(=O)OC [5,6-dicarboxyfluorescein trimethyl ester]",change of fluorescence intensity with passage of the reaction time,[2],increase of fluorescence intensity was observed
Nc1ccccc1-c1c2ccc(=O)cc-2oc2cc(O)ccc12 [Derivative 6],reactivity with UGT1A1,"[3]; UGT1A1 microsomes 0.1 mg/mL, UDP-glucuronic acid 2 mM, probe 1 μM (fluorescence) or 10 μM (absorbance)",weak
COc1ccc(-c2c3ccc(=O)cc-3oc3cc(O)ccc23)c(C)c1 [Derivative 11],decrease of fluorescence intensity to,[3]; [4],≤ 0.1%
same,decrease rate of fluorescence,[3]; [4],high decrease rate of fluorescence
